Laboratory results: patent publication US20260041095A1, “A PRESERVATION METHOD” (AnalytiCon Discovery - Zweigniederlassung der BRAIN Biotech …, priority 2022, published 2026)
≈ marks a conversion by molar mass, not a printed value.

Tests used:
Type in all cases: cell-based
Asaia siamensis SUN03 = test: Antimicrobial activity (MIC), Asaia siamensis SUN03; settings: potato dextrose broth pH 3.8, visual evaluation
[1] = tested on: Bacillus subtilis ATCC 6633; test: Antimicrobial activity (MIC), Bacillus subtilis ATCC 6633; settings: ATCC6633, potato dextrose broth pH 3.8, visual evaluation, read-out: Minimal Inhibitory Concentration (MIC)
Brettanomyces sp SUN08 = test: Antimicrobial activity (MIC), Brettanomyces sp SUN08; settings: potato dextrose broth pH 3.8, visual evaluation, read-out: Minimal Inhibitory Concentration (MIC)
Byssochlamys nivea SUN10 = test: Antimicrobial activity (MIC), Byssochlamys nivea SUN10; settings: Paecilomyces niveus, potato dextrose broth pH 3.8, visual evaluation, read-out: Minimal Inhibitory Concentration (MIC)
[2] = tested on: Candida parapsilosis SUN05; test: Antimicrobial activity (MIC), Candida parapsilosis SUN05; settings: Lodderomyces parapsilosis, potato dextrose broth pH 3.8, visual evaluation, read-out: Minimal Inhibitory Concentration (MIC)
[3] = tested on: Clostridium sporogenes ATCC19404; test: Antimicrobial activity (MIC), Clostridium sporogenes ATCC19404; settings: potato dextrose broth pH 3.8, visual evaluation, read-out: Minimal Inhibitory Concentration (MIC)
Experimental: Compounds are dissolved at a concentration of 20 mg/mL using 100% DMSO. • Preculture: yeast and bacteria are plated on potato dextrose agar, resuspended in potato dextrose broth and CFU via OD measurement determined; adjusting CFU of the strain in PDB pH 3.8 • Preculture: for mycel forming fungi spores were directly used after thawing of cryopreserved stocks of known titre • Final titre used for the assay: Yeast strains 5*10^3 CFU/ml, Bacteria 1*10^6 CFU/ml, Fungi (spores) 5*10^4 CFU/ml • Potato dextrose broth pH 3.8 was used as assay matrix • 500 ppm (0.05%) of the compounds were screened (final DMSO 2.5% (v/v)) • Volume: 100 μl in 96-well format • Positive controls: potassium sorbate, sodium benzoate & triclosan • 28° C. to 30° C., static incubation • Incubation time depending on spoilage organism between 2 and 8 days • Visual evaluation (per eye, for fungi with binocular magnification)

[4] = tested on: Enterococcus faecalis ATCC 7080; test: Antimicrobial activity (MIC), Enterococcus faecalis ATCC 7080; settings: ATCC7080, potato dextrose broth pH 3.8, visual evaluation, read-out: Minimal Inhibitory Concentration (MIC)
[5] = tested on: Gluconacetobacter liquefaciens DSM 5603; test: Antimicrobial activity (MIC), Gluconacetobacter liquefaciens DSM 5603; settings: DSM5603, potato dextrose broth pH 3.8, visual evaluation, read-out: Minimal Inhibitory Concentration (MIC)
[6] = tested on: Leuconostoc lactis DSM 20202; test: Antimicrobial activity (MIC), Leuconostoc lactis DSM 20202; settings: DSM20202, potato dextrose broth pH 3.8, visual evaluation, read-out: Minimal Inhibitory Concentration (MIC)
[7] = tested on: Neosartorya fischeri SUN09; test: Antimicrobial activity (MIC), Neosartorya fischeri SUN09; settings: Aspergillus fischeri, potato dextrose broth pH 3.8, visual evaluation, read-out: Minimal Inhibitory Concentration (MIC)
Penicillium paneum SUN04 = test: Antimicrobial activity (MIC), Penicillium paneum SUN04; settings: potato dextrose broth pH 3.8, visual evaluation, read-out: Minimal Inhibitory Concentration (MIC)
[8] = tested on: Saccharomyces cerevisiae SUN01; test: Antimicrobial activity (MIC), Saccharomyces cerevisiae SUN01; settings: potato dextrose broth pH 3.8, visual evaluation, read-out: Minimal Inhibitory Concentration (MIC)
[9] = tested on: Saccharomyces cerevisiae SUN06; test: Antimicrobial activity (MIC), Saccharomyces cerevisiae SUN06; settings: potato dextrose broth pH 3.8, visual evaluation, read-out: Minimal Inhibitory Concentration (MIC)
[10] = tested on: Zygosaccharomyces bailli SUN02; test: Antimicrobial activity (MIC), Zygosaccharomyces bailli SUN02; settings: potato dextrose broth pH 3.8, visual evaluation, read-out: Minimal Inhibitory Concentration (MIC)
[11] = tested on: Zygosaccharomyces bailli SUN07; test: Antimicrobial activity (MIC), Zygosaccharomyces bailli SUN07; settings: potato dextrose broth pH 3.8, visual evaluation, read-out: Minimal Inhibitory Concentration (MIC)
[12] = tested on: Alicyclobacillus acidoterrestris DSM 2498; test: Antimicrobial activity (MIC), Alicyclobacillus acidoterrestris DSM 2498; settings: DSM2498, potato dextrose broth pH 3.8, visual evaluation, read-out: Minimal Inhibitory Concentration (MIC)
[13] = tested on: Aspergillus brasiliensis DSM 1988; test: Antimicrobial activity (MIC), Aspergillus brasiliensis DSM 1988; settings: DSM1988, potato dextrose broth pH 3.8, visual evaluation, read-out: Minimal Inhibitory Concentration (MIC)
[14] = tested on: Bacillus licheniformis DSM 13; test: Antimicrobial activity (MIC), Bacillus licheniformis DSM 13; settings: DSM13, potato dextrose broth pH 3.8, visual evaluation, read-out: Minimal Inhibitory Concentration (MIC)
[15] = tested on: Candida albicans ATCC10231; test: Antimicrobial activity (MIC), Candida albicans ATCC10231; settings: potato dextrose broth pH 3.8, visual evaluation, read-out: Minimal Inhibitory Concentration (MIC)
[16] = tested on: Candida parapsilosis ATCC 20384; test: Antimicrobial activity (MIC), Candida parapsilosis ATCC 20384; settings: Lodderomyces parapsilosis, ATCC20384, potato dextrose broth pH 3.8, visual evaluation, read-out: Minimal Inhibitory Concentration (MIC)
[17] = tested on: Clostridium perfringens DSM756; test: microbe, parasite or virus in culture; settings: DSM756, pH 3.8, read-out: Minimal Inhibitory Concentration (MIC)
[18] = tested on: Corynebacterium xerosis DSM 20743; test: Antimicrobial activity (MIC), Corynebacterium xerosis DSM 20743; settings: DSM20743, potato dextrose broth pH 3.8, visual evaluation, read-out: Minimal Inhibitory Concentration (MIC)
[19] = tested on: Dekkera naardenensis CBS 6115; test: Antimicrobial activity (MIC), Dekkera naardenensis CBS 6115; settings: Brettanomyces naardenensis, CBS6115, potato dextrose broth pH 3.8, visual evaluation, read-out: Minimal Inhibitory Concentration (MIC)
[20] = tested on: Lactobacillus paracasei ssp. paracasei DSM 46331; test: Antimicrobial activity (MIC), Lactobacillus paracasei ssp. paracasei DSM 46331; settings: Lacticaseibacillus paracasei, DSM46331, potato dextrose broth pH 3.8, visual evaluation, read-out: Minimal Inhibitory Concentration (MIC)
[21] = tested on: Leuconostoc mesenteroides DSM 20343; test: Antimicrobial activity (MIC), Leuconostoc mesenteroides DSM 20343; settings: DSM20343, potato dextrose broth pH 3.8, visual evaluation, read-out: Minimal Inhibitory Concentration (MIC)
[22] = tested on: Malassezia furfur DSM 6170; test: Antimicrobial activity (MIC), Malassezia furfur DSM 6170; settings: DSM6170, potato dextrose broth pH 3.8, visual evaluation, read-out: Minimal Inhibitory Concentration (MIC)
[23] = tested on: Penicillium expansum DSM 62841; test: Antimicrobial activity (MIC), Penicillium expansum DSM 62841; settings: DSM62841, potato dextrose broth pH 3.8, visual evaluation, read-out: Minimal Inhibitory Concentration (MIC)
[24] = tested on: Saccharomyces cerevisiae DSM 2548; test: Antimicrobial activity (MIC), Saccharomyces cerevisiae DSM 2548; settings: DSM2548, potato dextrose broth pH 3.8, visual evaluation, read-out: Minimal Inhibitory Concentration (MIC)
[25] = tested on: Yarrowia lipolytica DSM 70561; test: Antimicrobial activity (MIC), Yarrowia lipolytica DSM 70561; settings: DSM70561, potato dextrose broth pH 3.8, visual evaluation, read-out: Minimal Inhibitory Concentration (MIC)
[26] = tested on: Zygosaccharomyces bailii DSM 70834; test: Antimicrobial activity (MIC), Zygosaccharomyces bailii DSM 70834; settings: DSM70834, potato dextrose broth pH 3.8, visual evaluation, read-out: Minimal Inhibitory Concentration (MIC)
[27] = tested on: Zygosaccharomyces rouxii DSM 7525; test: Antimicrobial activity (MIC), Zygosaccharomyces rouxii DSM 7525; settings: DSM7525, potato dextrose broth pH 3.8, visual evaluation, read-out: Minimal Inhibitory Concentration (MIC)

SMILES	MIC (Brettanomyces sp SUN08) [µg/mL]	MIC (Byssochlamys nivea SUN10) [µg/mL]	MIC [2] [µg/mL]	MIC [3] [µg/mL]	MIC [6] [µg/mL]	MIC [7] [µg/mL]	MIC (Penicillium paneum SUN04) [µg/mL]	MIC [8] [µg/mL]	MIC [9] [µg/mL]	MIC [10] [µg/mL]	MIC [11] [µg/mL]	also measured
O=C(O)CCCCCCCCCCCCCC(O)CO[C@@H]1O[C@H](COC(=O)O)[C@@H](O[C@@H]2O[C@H](CO)[C@@H](O)[C@H](O)[C@H]2OC(=O)CC(O)CCO)[C@H](O)[C@H]1O (stereo partly shown) [NP-018250]	125 (≈ 162 µM)	125 (≈ 162 µM)	125 (≈ 162 µM)	250 (≈ 323 µM)	250 (≈ 323 µM)	125 (≈ 162 µM)	125 (≈ 162 µM)	125 (≈ 162 µM)	125 (≈ 162 µM)	125 (≈ 162 µM)	125 (≈ 162 µM)	MIC (Asaia siamensis SUN03; read-out: Minimal Inhibitory Concentration (MIC)): ≤ 125 µg/mL; MIC [1]: 250 µg/mL (≈ 323 µM); MIC [4]: 250 µg/mL (≈ 323 µM); MIC [5]: 250 µg/mL (≈ 323 µM)
CCCCCC(O)CC(=O)O[C@H]1[C@H](O[C@H]2[C@H](O)[C@@H](O)[C@H](OCC(O)CCCCCCCCCCCCC(O)C(=O)O)O[C@@H]2COC(C)=O)O[C@H](CO)[C@@H](O)[C@@H]1O (stereo partly shown) [NP-018256]	≤ 125	≤ 125	≤ 125	80 (≈ 98.4 µM)	240 (≈ 295 µM)	≤ 125	≤ 125	≤ 125	≤ 125	≤ 125	500 (≈ 615 µM)	Minimal Inhibitory Concentration (MIC) (Asaia siamensis SUN03): inact.; MIC [12]: 240 µg/mL (≈ 295 µM); MIC [13]: 240 µg/mL (≈ 295 µM); MIC [14]: 240 µg/mL (≈ 295 µM); MIC [15]: 80 µg/mL (≈ 98.4 µM); MIC [16]: 240 µg/mL (≈ 295 µM); MIC [17]: 80 µg/mL (≈ 98.4 µM); MIC [18]: 1200 µg/mL (≈ 1480 µM); MIC [19]: 80 µg/mL (≈ 98.4 µM); MIC [20]: 240 µg/mL (≈ 295 µM); MIC [21]: 240 µg/mL (≈ 295 µM); MIC [22]: 80 µg/mL (≈ 98.4 µM); MIC [23]: 240 µg/mL (≈ 295 µM); MIC [24]: 240 µg/mL (≈ 295 µM); MIC [25]: 240 µg/mL (≈ 295 µM); MIC [26]: 80 µg/mL (≈ 98.4 µM); MIC [27]: 80 µg/mL (≈ 98.4 µM)
